Experimental data as given in PubChem BioAssay AID248 (DTP/NCI, 2004).
Where “and” joins values, the source holds several entries; their conditions need not be identical. Identical values can stand only once. Toxic doses and inconclusive results are not listed. Rule as the data show it: active = T/C of 150% or more; inactive = T/C below 125%.

Tested on: L1210 leukemia ip in BDF1 mice, survival T/C
Test: NCI In Vivo Anticancer Drug Screen. Data for tumor model L1210 Leukemia (intraperitoneal) in B6D2F1 (BDF1) mice
Conditions: endpoint: mean survival time, higher = longer survival
Summary of the method: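 Read-out is survival time, reported as the treated-group measurement over the vehicle-control measurement.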

[1] = dose: 100.0 mg/kg/injection, schedule: Q04DX003 (ip), vehicle: Klucel (hydroxypropylcellulose) (HPC)
[2] = dose: 100.0 mg/kg/injection, schedule: Q01DX001 (ip), vehicle: Klucel (hydroxypropylcellulose) (HPC)
[3] = dose: 200.0 mg/kg/injection, schedule: Q01DX001 (ip), vehicle: Klucel (hydroxypropylcellulose) (HPC)
[4] = dose: 100.0 mg/kg/injection, schedule: Q04DX003 (ip), vehicle: saline
[5] = dose: 200.0 mg/kg/injection, schedule: Q04DX003 (ip), vehicle: saline
[6] = dose: 400.0 mg/kg/injection, schedule: Q04DX003 (ip), vehicle: saline
[7] = dose: 100.0 mg/kg/injection, schedule: Q01DX001 (ip), vehicle: saline
[8] = dose: 200.0 mg/kg/injection, schedule: Q01DX001 (ip), vehicle: saline
[9] = dose: 400.0 mg/kg/injection, schedule: Q01DX001 (ip), vehicle: saline

Measured: T/C

CC[N+]12CC=C3COC(=O)C(C)(O)C(C)(O)C(C)C(=O)OC(CC1)C32 (stereo not given)
inactive: dose: 50.0 mg/kg/injection, schedule: Q01DX009 (ip), vehicle: saline 92 % of control | dose: 100.0 mg/kg/injection, schedule: Q01DX009 (ip), vehicle: saline 97 % of control | dose: 200.0 mg/kg/injection, schedule: Q01DX009 (ip), vehicle: saline 92 % of control

CN(CCN(CCCl)c1ccc(N)cc1)c1ccc(N)cc1
inactive: dose: 10.0 mg/kg/injection, schedule: Q04DX003 (ip), vehicle: saline 110 % of control | dose: 20.0 mg/kg/injection, schedule: Q04DX003 (ip), vehicle: saline 110 % of control | dose: 40.0 mg/kg/injection, schedule: Q04DX003 (ip), vehicle: saline 93 % of control

O=C(O)c1cc(Cl)c(Cl)s1
inactive: dose: 25.0 mg/kg/injection, schedule: Q04DX003 (ip), vehicle: Klucel (hydroxypropylcellulose) (HPC) 101 % of control | dose: 50.0 mg/kg/injection, schedule: Q04DX003 (ip), vehicle: Klucel (hydroxypropylcellulose) (HPC) 100 % of control | [1] 103 % of control

C=CCC(B1OCCO1)B1OCCO1
inactive: dose: 100.0 mg/kg/injection, schedule: Q04DX003 (ip), vehicle: saline sonified 106 % of control | dose: 200.0 mg/kg/injection, schedule: Q04DX003 (ip), vehicle: saline sonified 95 % of control | dose: 400.0 mg/kg/injection, schedule: Q04DX003 (ip), vehicle: saline sonified 110 % of control

Cc1cccc(Cl)c1NC(=O)Nc1cccc(O)c1
inactive: dose: 100.0 mg/kg/injection, schedule: Q01DX009 (ip), vehicle: saline with Tween-80 100 % of control | dose: 200.0 mg/kg/injection, schedule: Q01DX009 (ip), vehicle: saline with Tween-80 100 % of control | dose: 400.0 mg/kg/injection, schedule: Q01DX009 (ip), vehicle: saline with Tween-80 97 % of control

CN(C)c1ccc(C(C#N)C(C#N)c2ccccc2)cc1 (stereo not given)
inactive: dose: 50.0 mg/kg/injection, schedule: Q01DX001 (ip), vehicle: Klucel (hydroxypropylcellulose) (HPC) 88 % of control | [2] 88 % of control | [3] 88 % of control

O=C(Nc1ccc(C(=O)CCl)cc1)Nc1ccc(C(=O)CCl)cc1
inactive: dose: 100.0 mg/kg/injection, schedule: Q01DX005 (ip), vehicle: saline 100 % of control | [4] 101 % of control | dose: 200.0 mg/kg/injection, schedule: Q01DX005 (ip), vehicle: saline 102 % of control | [5] 104 % of control | dose: 400.0 mg/kg/injection, schedule: Q01DX005 (ip), vehicle: saline 103 % of control | [6] 93 % of control

O=C(O)C(c1ccccc1)P(=S)(c1ccccc1)c1ccccc1 (stereo not given)
inactive: dose: 75.0 mg/kg/injection, schedule: Q01DX001 (ip), vehicle: other 89 % of control | dose: 150.0 mg/kg/injection, schedule: Q01DX001 (ip), vehicle: other 111 % of control

COc1ccccc1OS(=O)(=O)c1ccc(COc2ccc([N+](=O)[O-])cc2Cl)cc1
inactive: [2] 93 % of control | [3] 98 % of control | dose: 400.0 mg/kg/injection, schedule: Q01DX001 (ip), vehicle: Klucel (hydroxypropylcellulose) (HPC) 96 % of control

O=C(NCc1ccncc1)Nc1ccccc1F
inactive: [2] 93 % of control | dose: 100.0 mg/kg/injection, schedule: Q01DX009 (ip), vehicle: Klucel (hydroxypropylcellulose) (HPC) 100 % of control | dose: 100.0 mg/kg/injection, schedule: Q04DX002 (ip), vehicle: Klucel (hydroxypropylcellulose) (HPC) 94 % of control and 103 % of control | [1] 94 % of control | [3] 104 % of control | dose: 200.0 mg/kg/injection, schedule: Q01DX009 (ip), vehicle: Klucel (hydroxypropylcellulose) (HPC) 98 % of control and 105 % of control | dose: 200.0 mg/kg/injection, schedule: Q04DX002 (ip), vehicle: Klucel (hydroxypropylcellulose) (HPC) 101 % of control and 91 % of control | dose: 200.0 mg/kg/injection, schedule: Q04DX003 (ip), vehicle: Klucel (hydroxypropylcellulose) (HPC) 97 % of control

CCSC(SCC)C(C)=O
inactive: dose: 50.0 mg/kg/injection, schedule: Q01DX001 (ip), vehicle: saline 92 % of control | [7] 108 % of control | [8] 94 % of control | [9] 89 % of control

O=Cc1ccccc1OCCCC[P+](c1ccccc1)(c1ccccc1)c1ccccc1
inactive: dose: 5.0 mg/kg/injection, schedule: Q01DX001 (ip), vehicle: saline 111 % of control | dose: 10.0 mg/kg/injection, schedule: Q01DX001 (ip), vehicle: saline 107 % of control | dose: 20.0 mg/kg/injection, schedule: Q01DX001 (ip), vehicle: saline 102 % of control

CNCC(NC)c1cc(OC)c(OC)c(OC)c1 (stereo not given)
inactive: [4] 94 % of control | [5] 95 % of control | [6] 94 % of control

Cc1[nH]c2ccccc2c(=O)c1CCC(=O)O
inactive: dose: 100.0 mg/kg/injection, schedule: Q04DX002 (ip), vehicle: saline with Tween-80 88 % of control | dose: 200.0 mg/kg/injection, schedule: Q04DX002 (ip), vehicle: saline with Tween-80 91 % of control | dose: 400.0 mg/kg/injection, schedule: Q04DX002 (ip), vehicle: saline with Tween-80 91 % of control

CN(C)Cc1cc(C(F)(F)F)ccc1C(O)(c1ccccc1)c1ccccc1
inactive: dose: 50.0 mg/kg/injection, schedule: Q01DX001 (ip), vehicle: carboxymethylcellulose (CMC) 110 % of control | dose: 100.0 mg/kg/injection, schedule: Q01DX001 (ip), vehicle: carboxymethylcellulose (CMC) 101 % of control | dose: 200.0 mg/kg/injection, schedule: Q01DX001 (ip), vehicle: carboxymethylcellulose (CMC) 101 % of control | dose: 400.0 mg/kg/injection, schedule: Q01DX001 (ip), vehicle: carboxymethylcellulose (CMC) 98 % of control

CC(=O)Nc1ccc(C=O)cc1
inactive: [7] 100 % of control | [8] 97 % of control | [9] 116 % of control

CCCCN=Cc1cc([N+](=O)[O-])ccc1O.CCCCN=Cc1cc([N+](=O)[O-])ccc1O.[Ni]
inactive: dose: 12.5 mg/kg/injection, schedule: Q01DX009 (ip), vehicle: saline with Tween-80 98 % of control | dose: 25.0 mg/kg/injection, schedule: Q01DX009 (ip), vehicle: saline with Tween-80 94 % of control | dose: 50.0 mg/kg/injection, schedule: Q01DX009 (ip), vehicle: saline with Tween-80 86 % of control
